This note sets out measurements from PMC8742467, “Therapeutical interference with the epigenetic landscape of germ cell tumors: a comparative drug study and new mechanistical insights” (Clinical Epigenetics, 2022).

The test system of test [1] is CC (choriocarcinoma) cell lines JAR, JEG-3, BeWo. The experiment in a line: XTT cell viability assay, CC cell lines. The note with it: Homo sapiens; after 48 h, mean per entity. The class given is cell-based. On the procedure:
(§1) The […] (XTT) assays were performed as described previously. In summary, for GCT and fibroblast cell lines 5 × 10^3 cells (3 × 10^3 for UC, PCa and RCC cell lines) per 96-well were seeded and different drug concentrations (see Additional file 2: Fig. S2, Additional file 3: Fig. S3) or corresponding solvents were added to the cells the following day. For drug details see Additional file 12: Table S2 C. Each condition was analyzed in four technical replicates and EC50 values were calculated by GraphPad Prism v8.

In another test the test system is YST (GCT72). As to the kind of experiment: Flow cytometry apoptosis (Annexin V/PI), YST. The test is classed as cell-based, Human. The conditions noted are these: EC50, 16 h. Here is the method: (§2) For Annexin V/PI staining, cells were washed with Annexin V Binding Buffer before being resuspended in 70 µl Annexin V Binding Buffer and 2.5 μl Annexin V FITC-conjugate (both Miltenyi Biotec, Bergisch Gladbach, Germany) and 15 µg PI (Sigma-Aldrich, Taufkirchen, Germany) and incubated in the dark at room temperature for 15 min. 500 µl of Annexin V Binding Buffer was added before measurement. For the cell cycle analysis, cells were washed with PBS (phosphate buffered saline), fixed by ice cold 70% ethanol and stained with 2 µg/ml PI and 200 µg/ml RNaseA (Quiagen, Hilden, Germany 100 mg/ml) in PBS shortly before every measurement. At least 5 × 10^4 cells were counted and analyzed using the MACSQuant software v 2.13.0.

Another test deals with CC (JAR). As to the kind of experiment: Flow cytometry apoptosis (Annexin V/PI), CC. The class given is cell-based, Human. The conditions noted are these: EC50, 16 h. On the procedure:
as §2

The test system of the next test is GCT cells. The experiment in a line: Flow cytometry cell cycle (PI), GCT cells. The test is classed as cell-based, Human. The conditions noted are these: EC50, 16 h. Here is the method: as §2
(A flow cytometer gives signals particle by particle.)

Test [2] has as its system renal cell carcinoma (RCC) cell lines. The experiment in a line: XTT cell viability assay, RCC cell lines. The test is classed as cell-based. Here is the method:
as §1
(Tetrazolium dyes change colour on reduction, which living cells bring about.)

The test system of test [3] is prostate cancer (PCa) cell lines. The experiment in a line: XTT cell viability assay, PCa cell lines. The test is classed as cell-based, Human. On the procedure: as §1
Test [4] deals with urothelial carcinoma (UC) cell lines. As to the kind of experiment: XTT cell viability assay, UC cell lines. The test is classed as cell-based, Human. On the procedure: as §1
For test [5], the system named is H2AK119ub in 2102EP cells. The experiment in a line: Western blot of histone extracts. The note with it: after 48 h of treatment. The class given is cell-based, Human. Here is the method:
Western Blots were performed as described previously. In total, 20 µg of whole cell protein lysates or 3 µg of histone extract were used for western blotting. β-Actin was used as housekeeper and loading control for whole cell lysates. Western blots of histone extracts were stained with Coomassie Brilliant Blue R 250 (Roth, Karlsruhe, Germany) and total H3 or H4 antibody to verify equal loading. For antibody details, see supplement (Additional file 12: Table S2 D). The ChemiDoc Imaging System (Bio-Rad Laboratories, Feldkirchen, Germany) was used for detection. Pixel density was analyzed using the ‘Image Lab’ software provided by Bio-Rad.
(Immunoblotting shows a protein as a band on a membrane.)

The test system of the next test is fibroblast control cells. As to the kind of experiment: Flow cytometry apoptosis (Annexin V/PI), fibroblasts. The test is classed as cell-based, Human. The note with it: EC50, 16 h. On the procedure: as §2
Where [6] appears, read: Homo sapiens; mean of three cell lines, 48 h.
[7] abbreviates: Homo sapiens, 48 h, mean of three cell lines.

Consider `CCCc1cc(C)[nH]c(=O)c1CNC(=O)c1cc(-c2ccnc(N3CCN(C)CC3)c2)cc2c1cnn2C(C)C` [GSK343], for which the EC50 (as a rule, the concentration that produces a half-maximal response) in test [1] was 10400 nM. In the test on YST (GCT72), the “apoptosis induction in GCT72” value was “negligible”. Besides, the “apoptosis induction in JAR” value in the test with CC (JAR) is “negligible”.
Consider `CN1C(=O)[C@@]23C[C@]4([C@]56C[C@@]78SS[C@@](CO)(C(=O)N7[C@H]5Nc5ccccc56)N(C)C8=O)c5ccccc5N[C@@H]4N2C(=O)[C@]1(CO)SS3` [Chaetocin], for which the “cell cycle phase accumulation in GCT cells” value in the test on GCT cells is “accumulation in the G2/M phase”. The figures for the concentration for a half-maximal effect (EC50) in test [2] (setting [6]), in test [3] (setting [6]) and in [4] (setting [6]) were 156 nM, 233 nM and 99.6 nM, respectively.
Take `Cn1cc(CNCC2CCN(c3ncc(C(=O)NO)cn3)CC2)c2ccccc21` [Quisinostat]: the “cell cycle phase accumulation in GCT cells” value in the test with GCT cells is “accumulation in the G2/M phase”. The EC50 in test [1] was 6.94 nM; in test [2] (setting [7]) it was over 50 nM; in test [3] (setting [7]), 22.2 nM; in [3] (mean of three cell lines, 48 h), 22.2 nM; in test [4] (setting [7]) it was 17.2 nM; in test [4] (mean of three cell lines, 48 h), 17.2 nM.
As to `O=C1C(=Cc2cccnc2)C(=O)c2ccccc21` [PRT4165], the “H2AK119ub by western blot” value in test [5] is listed as “decreased H2AK119ub”. Further, the “apoptosis induction in fibroblast control cells” value with fibroblast control cells is reported as “only a weak apoptosis induction”.
